Source: patent US20080090805A1, “CB-1 MODULATING COMPOUNDS AND THEIR USE” (ACADIA PHARMACEUTICALS INC., priority 2005, published 2008)

These compounds were tested against native CB1 receptors (Rattus norvegicus, UniProt P20272) (assay: CB1 receptor rat binding assay ([3H]SR141716A, rat brain membranes)). Conditions: rat brain membranes, [3H]SR141716A.
Sequence of native CB1 receptors (P20272 whole entry): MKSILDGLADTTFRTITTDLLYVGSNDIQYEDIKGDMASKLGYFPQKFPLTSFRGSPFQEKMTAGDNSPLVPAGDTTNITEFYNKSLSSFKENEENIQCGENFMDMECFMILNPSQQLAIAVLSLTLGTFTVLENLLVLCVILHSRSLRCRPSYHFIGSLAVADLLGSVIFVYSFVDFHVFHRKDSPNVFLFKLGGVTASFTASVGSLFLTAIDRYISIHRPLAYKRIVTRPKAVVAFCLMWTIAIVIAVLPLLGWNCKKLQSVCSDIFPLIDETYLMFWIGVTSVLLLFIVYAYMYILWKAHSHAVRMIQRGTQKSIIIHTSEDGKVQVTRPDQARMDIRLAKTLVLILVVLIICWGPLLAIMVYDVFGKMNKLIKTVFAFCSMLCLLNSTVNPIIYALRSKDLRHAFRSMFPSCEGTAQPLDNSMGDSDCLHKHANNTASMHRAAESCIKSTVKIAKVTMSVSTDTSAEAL

SMILES	Binding rat Inh %
O=C(NC1CCC(F)(F)CC1)c1ccc2c(c1)N=C(c1ccc(Cl)cc1F)c1ccccc1S2	78%
O=C(NCCc1ccncc1)c1ccc2c(c1)N=C(c1ccc(F)cc1)c1ccccc1S2 [drawing 1220]	103%
O=C(NCCC(F)(F)F)c1ccc2c(c1)N=C(c1cccc(F)c1)c1ccccc1S2 [drawing 1337]	108%
Cc1csc(CNC(=O)c2ccc3c(c2)N=C(c2sccc2C)c2ccccc2S3)c1 [drawing 1255]	93%
CC(C)CNC(=O)c1ccc2c(c1)N=C(c1ccc(F)cc1)c1ccccc1S2 [drawing 1319]	87%
Cc1csc(CNC(=O)c2ccc3c(c2)N=C(c2ccsc2)c2ccccc2S3)c1 [drawing 1313]	106%
O=C(NC1CCC(F)(F)CC1)c1ccc2c(c1)N=C(c1ccsc1)c1ccccc1S2	92%
Cc1ccsc1C1=Nc2cc(C(=O)NN3[C@H](C)CCC[C@@H]3C)ccc2Sc2ccccc21 [drawing 1530]	65%
O=C(Cc1ccccc1)NNC(=O)c1ccc2c(c1)N=C(c1ccc(F)cc1)c1ccccc1S2 [drawing 1190]	65%
Cc1ccc(CNC(=O)c2ccc3c(c2)N=C(c2ccc(Cl)c(Cl)c2)c2ccccc2S3)o1 [drawing 1320]	96%
CCCNC(=O)c1ccc2c(c1)N=C(c1ccc(Br)cc1)c1ccccc1S2 [drawing 1259]	65%
CCCCNC(=O)c1ccc2c(c1)N=C(c1ccc(F)cn1)c1ccccc1S2 [drawing 1246]	87%
O=C(NC1CCCC1)c1ccc2c(c1)N=C(c1ccc(F)cc1)c1ccccc1S2 [drawing 1268]	84%
COc1ccc(C2=Nc3cc(C(=O)NCCC(C)C)ccc3Sc3ccccc32)cc1 [drawing 1351]	81%
O=C(NCCc1ccccn1)c1ccc2c(c1)N=C(c1ccc(Cl)cc1)c1ccccc1S2 [drawing 1340]	60%
Cc1ccc(CNC(=O)c2ccc3c(c2)N=C(c2ccc(Cl)cc2)c2ccccc2S3)o1 [drawing 1416]	88%
Cc1ccsc1C1=Nc2cc(C(=O)NC3CCCC3)ccc2Sc2ccccc21 [drawing 1382]	102%
CCCCNC(=O)c1ccc2c(c1)N=C(c1ccc(F)c(F)c1)c1ccccc1S2	102%
O=C(NN1CCCCC1)c1ccc2c(c1)N=C(c1ccc(F)c(Cl)c1)c1ccccc1S2 [drawing 1321]	100%
CC(C)CCNC(=O)c1ccc2c(c1)N=C(c1ccccn1)c1ccccc1S2 [drawing 1349]	86%
CC(C)CNC(=O)c1ccc2c(c1)N=C(c1ccsc1)c1ccccc1S2 [drawing 1303]	90%
CC(C)NC(=O)c1ccc2c(c1)N=C(c1cccc(Cl)c1)c1ccccc1S2 [drawing 1269]	83%

Further lines, results first:

Binding rat Inh %	SMILES
112%	O=C(NCc1ccco1)c1ccc2c(c1)N=C(c1ccc(Cl)s1)c1ccccc1S2 [drawing 1383]
66%	O=C(NNCc1ccccc1)c1ccc2c(c1)N=C(c1cccc(Br)c1)c1ccccc1S2 [drawing 1505]
76%	O=C(NCc1ccncc1)c1ccc2c(c1)N=C(c1cccc(Br)c1)c1ccccc1S2 [drawing 1511]
82%	O=C(NN1CCCCCC1)c1ccc2c(c1)N=C(c1ccc(Cl)cc1)c1ccccc1S2 [drawing 1463]
68%	COc1ccc(C2=Nc3cc(C(=O)NNC(=O)c4ccccc4)ccc3Sc3ccccc32)cc1 [drawing 1535]
85%	CC(C)NC(=O)c1ccc2c(c1)N=C(c1ccc(Cl)s1)c1ccccc1S2 [drawing 1445]
77%	CC(C)NC(=O)c1ccc2c(c1)N=C(c1cccc(F)c1)c1ccccc1S2 [drawing 1528]
114%	O=C(NCCc1ccccn1)c1ccc2c(c1)N=C(c1ccc(Cl)c(Cl)c1)c1ccccc1S2 [drawing 1452]
112%	O=C(NN1CCCCCC1)c1ccc2c(c1)N=C(c1ccc(F)cc1)c1ccccc1S2 [drawing 1433]
60%	O=C(NN1CCCCC1)c1ccc2c(c1)N=C(c1ccc(Cl)cc1)c1ccccc1S2 [drawing 1424]
87%	O=C(NN1CCCCC1)c1ccc2c(c1)N=C(c1ccc(Cl)c(F)c1)c1ccccc1S2 [drawing 1394]
95%	O=C(NCc1cccs1)c1ccc2c(c1)N=C(c1cccc(F)c1)c1ccccc1S2 [drawing 1384]
79%	O=C(NNC(=O)c1ccc2c(c1)N=C(c1ccc(F)cc1)c1ccccc1S2)c1ccccc1 [drawing 1519]
85%	CC(C)CCNC(=O)c1ccc2c(c1)N=C(c1ccccc1F)c1ccccc1S2 [drawing 1509]
96%	CCCCNC(=O)c1ccc2c(c1)N=C(c1ccc(Cl)s1)c1cc(F)ccc1S2 [drawing 1515]
103%	CCCCNC(=O)c1cc2c(cc1O)Sc1ccccc1C(c1ccc(Cl)cc1)=N2 [drawing 1410]
86%	CC(C)CNC(=O)c1ccc2c(c1)N=C(c1ccc(Cl)cc1)c1ccc(Cl)cc1S2 [drawing 1525]
63%	O=C(NN1CCCC1)c1ccc2c(c1)N=C(c1ccc(Cl)cc1)c1ccccc1S2 [drawing 1502]
73%	CCONC(=O)c1ccc2c(c1)N=C(c1ccc(Cl)c(Cl)c1)c1ccccc1S2 [drawing 1512]

Same assay, conditions: rat brain membranes, [3H]SR141716A; read-out: Binding rat pKi (converted)

SMILES	Ki
O=C(NC1CCC(F)(F)CC1)c1ccc2c(c1)N=C(c1ccc(Cl)cc1F)c1ccccc1S2	1 nM
O=C(NCc1ccccc1Cl)c1ccc2c(c1)N=C(c1ccc(Cl)cc1)c1ccccc1S2 [drawing 1341]	25.1 nM
O=C(NCCc1ccncc1)c1ccc2c(c1)N=C(c1ccc(F)cc1)c1ccccc1S2 [drawing 1220]	15.8 nM
O=C(NCCC(F)(F)F)c1ccc2c(c1)N=C(c1cccc(F)c1)c1ccccc1S2 [drawing 1337]	3.98 nM
O=C(NCc1ccccc1Br)c1ccc2c(c1)N=C(c1ccccc1F)c1ccccc1S2 [drawing 1355]	31.6 nM
Cc1csc(CNC(=O)c2ccc3c(c2)N=C(c2sccc2C)c2ccccc2S3)c1 [drawing 1255]	1 nM
CC(C)CNC(=O)c1ccc2c(c1)N=C(c1ccc(F)cc1)c1ccccc1S2 [drawing 1319]	3.16 nM
O=C(NCc1ccc(F)cc1)c1ccc2c(c1)N=C(C1CCCCC1)c1ccccc1S2(=O)=O [drawing 1326]	25.1 nM
O=C(NCc1ccccc1)c1ccc2c(c1)N=C(N1CCCCC1)c1ccccc1S2 [drawing 1253]	15.8 nM
O=C(NCc1cccc(Cl)c1)c1ccc2c(c1)N=C(C1CCCCC1)c1ccccc1S2 [drawing 1338]	3.98 nM
Cc1csc(CNC(=O)c2ccc3c(c2)N=C(c2ccsc2)c2ccccc2S3)c1 [drawing 1313]	3.16 nM
O=C(NC1CCC(F)(F)CC1)c1ccc2c(c1)N=C(c1ccsc1)c1ccccc1S2	3.16 nM
O=C(NCCc1ccc(Cl)cc1)c1ccc2c(c1)N=C(c1ccc(Cl)cc1)c1ccccc1S2 [drawing 1376]	5.01 nM
Cc1ccsc1C1=Nc2cc(C(=O)NN3[C@H](C)CCC[C@@H]3C)ccc2Sc2ccccc21 [drawing 1530]	79.4 nM
O=C(Cc1ccccc1)NNC(=O)c1ccc2c(c1)N=C(c1ccc(F)cc1)c1ccccc1S2 [drawing 1190]	12.6 nM
O=C(NCCc1ccc(Cl)cc1)c1ccc2c(c1)N=C(c1cccc(Cl)c1)c1ccccc1S2 [drawing 1281]	2 nM
O=C(NCCc1cccc(Cl)c1)c1ccc2c(c1)N=C(c1cccc(Cl)c1)c1ccccc1S2 [drawing 1331]	25.1 nM
Cc1ccc(CNC(=O)c2ccc3c(c2)N=C(c2ccc(Cl)c(Cl)c2)c2ccccc2S3)o1 [drawing 1320]	3.16 nM
O=C(NCCc1ccccc1)c1ccc2c(c1)N=C(c1cccc(Cl)c1)c1ccccc1S2 [drawing 1322]	3.16 nM
CCCNC(=O)c1ccc2c(c1)N=C(c1ccc(Br)cc1)c1ccccc1S2 [drawing 1259]	15.8 nM
O=C(NCc1ccccc1)c1ccc2c(c1)N=C(c1cccc(Cl)c1)c1ccccc1S2 [drawing 1328]	3.16 nM
CCCCNC(=O)c1ccc2c(c1)N=C(c1ccc(F)cn1)c1ccccc1S2 [drawing 1246]	15.8 nM

SMILES	Ki
O=C(NCCc1ccc(Cl)cc1)c1ccc2c(c1)N=C(c1ccc(F)cc1)c1ccccc1S2 [drawing 1367]	3.98 nM
O=C(NC1CCCC1)c1ccc2c(c1)N=C(c1ccc(F)cc1)c1ccccc1S2 [drawing 1268]	20 nM
COc1ccc(C2=Nc3cc(C(=O)NCCC(C)C)ccc3Sc3ccccc32)cc1 [drawing 1351]	3.98 nM
O=C(NCCc1cccc(Cl)c1)c1ccc2c(c1)N=C(c1ccc(Cl)cc1)c1ccccc1S2 [drawing 1283]	20 nM
O=C(NCc1cccc(Cl)c1)c1ccc2c(c1)N=C(N1CCCCC1)c1ccccc1S2(=O)=O [drawing 1428]	50.1 nM
CC(NC(=O)c1ccc2c(c1)N=C(N1CCCCC1)c1ccccc1S2)c1ccccc1 (stereo not drawn)	20 nM
O=C(NCCc1ccccn1)c1ccc2c(c1)N=C(c1ccc(Cl)cc1)c1ccccc1S2 [drawing 1340]	25.1 nM
Cc1ccc(CNC(=O)c2ccc3c(c2)N=C(c2ccc(Cl)cc2)c2ccccc2S3)o1 [drawing 1416]	6.31 nM
O=C(NCc1ccc(F)cc1)c1ccc2c(c1)N=C(c1ccc(Cl)cc1)c1ccccc1[S+]2[O-] (stereo not drawn) [drawing 1301]	20 nM
O=C(NN1CCCCC1)c1ccc2c(c1)N=C(c1cccc(Br)c1)c1ccccc1S2 [drawing 1487]	10 nM
CCCC1=Nc2cc(C(=O)NC3CCCC(C)C3C)ccc2Sc2ccccc21 (stereo not drawn) [drawing 1284]	20 nM
CCCC1=Nc2cc(C(=O)NCCN(CC)c3ccccc3)ccc2Sc2ccccc21 [drawing 1292]	20 nM
Cc1ccsc1C1=Nc2cc(C(=O)NC3CCCC3)ccc2Sc2ccccc21 [drawing 1382]	31.6 nM
O=C(NCc1ccc(F)cc1)c1ccc2c(c1)N=C(c1cccc(Cl)c1)c1ccccc1S2 [drawing 1391]	5.01 nM
O=C(NCc1ccc(Cl)cc1Cl)c1ccc2c(c1)N=C(c1ccc(F)cc1)c1ccccc1S2 [drawing 1211]	12.6 nM
CCCCNC(=O)c1ccc2c(c1)N=C(c1ccc(F)c(F)c1)c1ccccc1S2	2.51 nM
O=C(NN1CCCCC1)c1ccc2c(c1)N=C(c1ccc(F)c(Cl)c1)c1ccccc1S2 [drawing 1321]	3.16 nM
CC(CNC(=O)c1ccc2c(c1)N=C(c1cccc(Cl)c1)c1cc(F)ccc1S2)c1ccccc1 (stereo not drawn) [drawing 1196]	12.6 nM
CC(C)CCNC(=O)c1ccc2c(c1)N=C(c1ccccn1)c1ccccc1S2 [drawing 1349]	31.6 nM
CC(C)CNC(=O)c1ccc2c(c1)N=C(c1ccsc1)c1ccccc1S2 [drawing 1303]	2.51 nM
CC(C)NC(=O)c1ccc2c(c1)N=C(c1cccc(Cl)c1)c1ccccc1S2 [drawing 1269]	20 nM

Continued, values first:

Ki	SMILES
5.01 nM	O=C(NCc1ccco1)c1ccc2c(c1)N=C(c1ccc(Cl)s1)c1ccccc1S2 [drawing 1383]
31.6 nM	CCCC1=Nc2cc(C(=O)NCC(C)c3ccccc3)ccc2Sc2ccccc21 (stereo not drawn) [drawing 1395]
100 nM	Cc1ccc(N2CCN(C(=O)c3ccc4c(c3)N=C(c3ccc(Cl)cc3)c3ccccc3S4)CC2)c(C)c1 [drawing 1546]
79.4 nM	O=C(NNCc1ccccc1)c1ccc2c(c1)N=C(c1cccc(Br)c1)c1ccccc1S2 [drawing 1505]
79.4 nM	O=C(NCc1ccncc1)c1ccc2c(c1)N=C(c1cccc(Br)c1)c1ccccc1S2 [drawing 1511]
7.94 nM	O=C(NN1CCCCCC1)c1ccc2c(c1)N=C(c1ccc(Cl)cc1)c1ccccc1S2 [drawing 1463]
79.4 nM	COc1ccc(C2=Nc3cc(C(=O)NNC(=O)c4ccccc4)ccc3Sc3ccccc32)cc1 [drawing 1535]
39.8 nM	O=C(NCc1ccc(Cl)cc1Cl)c1ccc2c(c1)N=C(c1ccc(Cl)cc1)c1ccccc1S2 [drawing 1421]
63.1 nM	O=C(NCCc1ccccc1)c1ccc2c(c1)N=C(N1CCCCC1)c1ccccc1S2 [drawing 1470]
50.1 nM	CC(C)NC(=O)c1ccc2c(c1)N=C(c1ccc(Cl)s1)c1ccccc1S2 [drawing 1445]
7.94 nM	O=C(NCCCc1ccccc1)c1ccc2c(c1)N=C(c1ccccc1)c1ccccc1S2 [drawing 1450]
79.4 nM	CC(C)NC(=O)c1ccc2c(c1)N=C(c1cccc(F)c1)c1ccccc1S2 [drawing 1528]
50.1 nM	O=C(NCCc1ccccn1)c1ccc2c(c1)N=C(c1ccc(Cl)c(Cl)c1)c1ccccc1S2 [drawing 1452]
6.31 nM	O=C(NN1CCCCCC1)c1ccc2c(c1)N=C(c1ccc(F)cc1)c1ccccc1S2 [drawing 1433]
6.31 nM	O=C(NN1CCCCC1)c1ccc2c(c1)N=C(c1ccc(Cl)cc1)c1ccccc1S2 [drawing 1424]
7.94 nM	O=C(NCCc1cccc(Cl)c1)c1ccc2c(c1)N=C(c1ccccc1)c1ccccc1S2 [drawing 1457]
5.01 nM	O=C(NN1CCCCC1)c1ccc2c(c1)N=C(c1ccc(Cl)c(F)c1)c1ccccc1S2 [drawing 1394]
7.94 nM	CCCCNC(=O)c1ccc2c(c1)N=C(c1cccc(Cl)c1)c1ccccc1S2 [drawing 1479]
5.01 nM	O=C(NCc1cccs1)c1ccc2c(c1)N=C(c1cccc(F)c1)c1ccccc1S2 [drawing 1384]
79.4 nM	O=C(NNC(=O)c1ccc2c(c1)N=C(c1ccc(F)cc1)c1ccccc1S2)c1ccccc1 [drawing 1519]
10 nM	CC(C)CCNC(=O)c1ccc2c(c1)N=C(c1ccccc1F)c1ccccc1S2 [drawing 1509]
10 nM	CCCCNC(=O)c1ccc2c(c1)N=C(c1ccc(Cl)s1)c1cc(F)ccc1S2 [drawing 1515]
6.31 nM	CCCCNC(=O)c1cc2c(cc1O)Sc1ccccc1C(c1ccc(Cl)cc1)=N2 [drawing 1410]
10 nM	CC(C)CNC(=O)c1ccc2c(c1)N=C(c1ccc(Cl)cc1)c1ccc(Cl)cc1S2 [drawing 1525]
63.1 nM	O=C(NN1CCCC1)c1ccc2c(c1)N=C(c1ccc(Cl)cc1)c1ccccc1S2 [drawing 1502]
79.4 nM	CCONC(=O)c1ccc2c(c1)N=C(c1ccc(Cl)c(Cl)c1)c1ccccc1S2 [drawing 1512]

Same assay, conditions: rat brain membranes; 3 nM [3H]SR141716A; read-out: Rat Brain pKi (converted)

Ki	SMILES
251 nM	Cc1ccc(N2CCN(C(=O)c3ccc4c(c3)N=C(Cl)c3ccccc3S4)CC2)c(C)c1 [Example 12]
